The values that follow are results of earlier work, collected in patent US20090239812A1, “USE OF C7 SUGARS IN PREVENTION AND TREATMENT OF MYCOSES” (Laboratoires Expanscience, priority 2006, published 2009).

The data set has as its system Ehrlich's ascites tumor cells. Particulars: perseitol associated with a potassium ion; Shibuya et al. 1999.

Structures are written as SMILES.

With `OCC(O)C(O)C(O)C(O)C(O)CO` (stereo not shown) [perseitol, Perseitol], the “incorporation of 3H-leucine” value is on record as “inhibits”.
